Organism: Rattus norvegicus
Assay: Open TG-GATES - Regimen: Daily Repeat
Assay type: toxicity, organism-based, Sprague-Dawley
Design: regimen Daily Repeat, gender Male, age 6 weeks
Details: in vivo, po, 10 mg/kg, route gavage, dose level Low; for KIDNEY_L / KIDNEY_R / KIDNEY_TOTAL: tissue Kidney; for ALT / AST / CRE / DBIL / GLC / IP / K / LDH / PL / RALB / TBIL / TC / TG / TP / gamma-GTP: tissue Plasma

For CC(C)OC(=O)C(C)(C)Oc1ccc(C(=O)c2ccc(Cl)cc2)cc1 [FENOFIBRATE], the TERMINAL_BW (72 h, time 3 day) was 221.1 g, the Bas (72 h, tissue Blood, time 3 day) was 0.4% and the Eos (72 h, tissue Blood, time 3 day) was 1.4%. For the same compound, the Fbg (72 h, tissue Blood, time 3 day) was 269.8 mg/dL, the Ht (72 h, tissue Blood, time 3 day) was 39.2% and the MCHC (72 h, tissue Blood, time 3 day) was 33.1%. It also gave a Mono (72 h, tissue Blood, time 3 day) of 3%, a Plat (72 h, tissue Blood, time 3 day) of 113.1 x10_4/uL and an RBC (72 h, tissue Blood, time 3 day) of 620.2 x10_4/ul. The Ret (72 h, tissue Blood, time 3 day) was 7.2%, the WBC (72 h, tissue Blood, time 3 day) was 80.5 x10_2/uL and the KIDNEY_L (72 h, time 3 day) was 1 g. For the same compound, the KIDNEY_R (72 h, time 3 day) was 1 g, the KIDNEY_TOTAL (72 h, time 3 day) was 2 g and the ALT (72 h, time 3 day) was 49 IU/L. The AST (72 h, time 3 day) was 76.6 IU/L, the CRE (72 h, time 3 day) was 0.2 mg/dL and the DBIL (72 h, time 3 day) was 0.012 mg/dL. For the same compound, the GLC (72 h, time 3 day) was 182.8 mg/dL, the IP (72 h, time 3 day) was 8.3 mg/dL and the K (72 h, time 3 day) was 4.1 meq/L. It also gave an LDH (72 h, time 3 day) of 74 IU/L, a PL (72 h, time 3 day) of 148.8 mg/dL and an RALB (72 h, time 3 day) of 2.6 g/dL. The TBIL (72 h, time 3 day) was 0.04 mg/dL, the TC (72 h, time 3 day) was 80.4 mg/dL and the TG (72 h, time 3 day) was 52.4 mg/dL. For the same compound, the TP (72 h, time 3 day) was 5.6 g/dL, the gamma-GTP (72 h, time 3 day) was 1.2 IU/L and the TERMINAL_BW ([…], time 7 day) was 253.9 g. For the same compound, the TERMINAL_BW ([…], time 14 day) was 314.5 g, the TERMINAL_BW ([…], time 28 day) was 385.8 g and the Bas ([…], tissue Blood, time 7 day) was 0.2%. The Eos ([…], tissue Blood, time 7 day) was 1%, the Fbg ([…], tissue Blood, time 7 day) was 280.8 mg/dL and the Ht ([…], tissue Blood, time 7 day) was 41%. It also gave an MCHC ([…], tissue Blood, time 7 day) of 33.1%, a Mono ([…], tissue Blood, time 7 day) of 2.2% and a Plat ([…], tissue Blood, time 7 day) of 136.5 x10_4/uL. The RBC ([…], tissue Blood, time 7 day) was 646.8 x10_4/ul, the Ret ([…], tissue Blood, time 7 day) was 6.2% and the WBC ([…], tissue Blood, time 7 day) was 99.8 x10_2/uL. It also gave a Bas ([…], tissue Blood, time 14 day) of 0%, an Eos ([…], tissue Blood, time 14 day) of 1% and a Fbg ([…], tissue Blood, time 14 day) of 309.6 mg/dL. The Ht ([…], tissue Blood, time 14 day) was 42.6%, the MCHC ([…], tissue Blood, time 14 day) was 33.5% and the Mono ([…], tissue Blood, time 14 day) was 3%. For the same compound, the Plat ([…], tissue Blood, time 14 day) was 123.9 x10_4/uL, the RBC ([…], tissue Blood, time 14 day) was 687.6 x10_4/ul and the Ret ([…], tissue Blood, time 14 day) was 4.5%. For the same compound, the WBC ([…], tissue Blood, time 14 day) was 88.4 x10_2/uL, the Bas ([…], tissue Blood, time 28 day) was 0% and the Eos ([…], tissue Blood, time 28 day) was 1.2%. It also gave a Fbg ([…], tissue Blood, time 28 day) of 267 mg/dL, a Ht ([…], tissue Blood, time 28 day) of 44.6% and an MCHC ([…], tissue Blood, time 28 day) of 33.7%. The MCV ([…], tissue Blood, time 28 day) was 57.9 fL, the Mono ([…], tissue Blood, time 28 day) was 2.4% and the Plat ([…], tissue Blood, time 28 day) was 105.5 x10_4/uL. For the same compound, the RBC ([…], tissue Blood, time 28 day) was 770.4 x10_4/ul, the Ret ([…], tissue Blood, time 28 day) was 2.1% and the WBC ([…], tissue Blood, time 28 day) was 88.4 x10_2/uL. It also gave a KIDNEY_L ([…], time 7 day) of 1.1 g, a KIDNEY_R ([…], time 7 day) of 1.1 g and a KIDNEY_TOTAL ([…], time 7 day) of 2.1 g. It also gave a KIDNEY_L ([…], time 14 day) of 1.3 g, a KIDNEY_R ([…], time 14 day) of 1.3 g and a KIDNEY_TOTAL ([…], time 14 day) of 2.6 g. For the same compound, the KIDNEY_L ([…], time 28 day) was 1.5 g, the KIDNEY_R ([…], time 28 day) was 1.5 g and the KIDNEY_TOTAL ([…], time 28 day) was 2.9 g. The ALT ([…], time 7 day) was 45.2 IU/L, the AST ([…], time 7 day) was 72.8 IU/L and the CRE ([…], time 7 day) was 0.2 mg/dL. For the same compound, the DBIL ([…], time 7 day) was 0.01 mg/dL, the GLC ([…], time 7 day) was 187.2 mg/dL and the IP ([…], time 7 day) was 8.1 mg/dL. It also gave a K ([…], time 7 day) of 4.4 meq/L, an LDH ([…], time 7 day) of 101.2 IU/L and a PL ([…], time 7 day) of 131.8 mg/dL. The RALB ([…], time 7 day) was 2.7 g/dL, the TBIL ([…], time 7 day) was 0.026 mg/dL and the TC ([…], time 7 day) was 65.6 mg/dL. For the same compound, the TG ([…], time 7 day) was 74.2 mg/dL, the TP ([…], time 7 day) was 5.8 g/dL and the gamma-GTP ([…], time 7 day) was 1 IU/L. It also gave an ALT ([…], time 14 day) of 39.8 IU/L, an AST ([…], time 14 day) of 64 IU/L and a CRE ([…], time 14 day) of 0.2 mg/dL. It also gave a DBIL ([…], time 14 day) of 0.014 mg/dL, a GLC ([…], time 14 day) of 193.2 mg/dL and an IP ([…], time 14 day) of 7.7 mg/dL. For the same compound, the K ([…], time 14 day) was 4.3 meq/L, the LDH ([…], time 14 day) was 84 IU/L and the PL ([…], time 14 day) was 132.4 mg/dL. For the same compound, the RALB ([…], time 14 day) was 2.7 g/dL, the TBIL ([…], time 14 day) was 0.03 mg/dL and the TC ([…], time 14 day) was 57.2 mg/dL. It also gave a TG ([…], time 14 day) of 124.8 mg/dL, a TP ([…], time 14 day) of 6 g/dL and a gamma-GTP ([…], time 14 day) of 0.8 IU/L. The ALT ([…], time 28 day) was 40.2 IU/L, the AST ([…], time 28 day) was 63.2 IU/L and the CRE ([…], time 28 day) was 0.2 mg/dL. The DBIL ([…], time 28 day) was 0.01 mg/dL, the GLC ([…], time 28 day) was 187.6 mg/dL and the IP ([…], time 28 day) was 7.2 mg/dL. It also gave a K ([…], time 28 day) of 4.2 meq/L, an LDH ([…], time 28 day) of 101.6 IU/L and a PL ([…], time 28 day) of 136.2 mg/dL. For the same compound, the RALB ([…], time 28 day) was 2.8 g/dL, the TBIL ([…], time 28 day) was 0.028 mg/dL and the TC ([…], time 28 day) was 64.6 mg/dL. It also gave a TG ([…], time 28 day) of 100 mg/dL, a TP ([…], time 28 day) of 6.4 g/dL and a gamma-GTP ([…], time 28 day) of 1 IU/L.

Reference: ChEMBL document CHEMBL3885861, “Open TG-GATES”
